Test results as given in patent US11833154B2, “Methods of treatment of myeloproliferative neoplasm” (priority 2017, dated 2023).

Tests used:
[1] = test system: IDH2^R140Q JAK2^V61F mutant cells; test: Serum 2HG levels in treated transplant recipient mice (LC-MS); type: in vivo; details: mice engrafted with IDH2^R140Q JAK2^V617F cells; oral AG221 40-100 mg/kg, ruxolitinib 60 mg per kg, BID; at sacrifice after four weeks; vehicle mean 1874
Procedure: (§1) Dissected femurs and tibias were isolated. Bone marrow was flushed into PBS+2% BSA or RPMI+10% FCS using a syringe or by centrifuge spin. Spleens were isolated and single cell suspensions made by mechanical disruption using glass slides. All harvested cells were passed through a […] strainer. Red blood cells (RBCs) were lysed in ammonium chloride-potassium bicarbonate lysis buffer for 10 min on ice. Cells were transplanted by via tail vein injection into lethally irradiated (2×550 Rad) CD45.1 host mice. For noncompetitive transplants, 1×10^6 total cells were transplanted; for competitive transplants including drug studies, 1×10^6 total donor cells were injected in a mixture with 1×10^6 cells from a congenic CD45.1 donor; for cell of origin transplants, injection number was determined based on the lowest yield after sort to inject approximately 100,000 MPP or 300 LT-HSC with 300,000 whole bone marrow cells from a CD45.1 donor.
2HG was extracted from serum using 80% aqueous methanol, as described by Lu et al., […]. […] All extracts were spun at 13,000 rpm at 4° C. to remove precipitate, dried at room temperature, and stored at −80° C.

JAK2/IDH2-mutant MPN [2] = test: Therapeutic assay: spleen weight, hematocrit and leukocyte count at sacrifice; type: in vivo, mice; details: IDH2^R140Q JAK2^V617F bone marrow recipients, four weeks of treatment; vehicle mean 289.1
Procedure: as §1

JAK2/IDH2-mutant MPN [3] = test: Bone marrow stem and progenitor populations by FACS in treated recipients; type: in vivo, mice; details: for Erythrocyte progenitors: Pre-erythrocytes / Pre-MegE populations / Erythrocyte progenitors: CFU-E / Erythrocyte progenitors: Pre-CFU-E: bone marrow FACS; for Erythrocyte progenitors: Pre-erythrocytes / Pre-MegE populations / Erythrocyte progenitors: CFU-E / Erythrocyte progenitors: Pre-CFU-E / Total LSK number in the bone marrow: four weeks of treatment; for Erythrocyte progenitors: Pre-erythrocytes / Pre-MegE populations: vehicle 0.1757; for Erythrocyte progenitors: CFU-E: vehicle 1.621; for Erythrocyte progenitors: Pre-CFU-E: vehicle mean 0.5189%; for Total LSK number in the bone marrow: double mutant mice, vehicle mean 57.19×10^3
Procedure: as §1
(§2) Cells were stained with antibodies in FACS Buffer (2% Bovine Serum Albumin in phosphate-buffered saline (PBS)) for 30 min on ice. Donor and support chimerism was assessed using antibodies against CD45.1 (Clone A20, Biolegend) and CD45.2 (Clone 104, BioLegend).
Cells were also stained with antibodies specific to c-Kit/CD117 (clone 2B8, BioLegend), Sca-1 (clone D7, BioLegend), FcγRII/III/CD16/32 (clone 2.4G2, eBiosciences) and CD34 (clone RAM34, eBiosciences) or SLAM/CD150 (TC15-12F12.2, BioLegend) and CD48 (HM48-1, eBioscience). To assess mature cell lineages we used a combination of antibodies against Mac1, Gr-1, B220, CD3, cKit/CD117, CD45.1, and CD45.2.
To assess erythroid and megakaryocyte progenitors we stained unlysed tissues with a lineage cocktail including CD4, CD8, B220/CD45R, Mac1/CD11b, Gr-1, IL7R/CD127 (A7R34, BioLegend), CD49b (DX5, BioLegend). Antibodies were also used against c-Kit/CD117, Sca-1, SLAM/CD150, CD48, FcγRII/III/CD16/32, CD41 (eBioMWReg30, eBioscience), CD105 (MJ7/18, BioLegend), CD71 (RI7217, BioLegend), and Ter119 and gated as described by Pronk et al., Elucidation of the Phenotypic, Functional, and Molecular Topography of a Myeloerythroid Progenitor Cell Hierarchy, Cell Stem Cell 2007; 1:428-42.

[4] = test system: IDH2^R140Q JAK2^V617F MPN cells (CD45.2^+); test: Paired donor chimerism in peripheral blood before and after treatment; type: in vivo, mice; details: four weeks of treatment, vehicle +4.236
Procedure: as §1, §2

JAK2/IDH2 mutant MPN = test: Histology of bone marrow and spleen of treated recipients; type: in vivo, mice
Procedure: Pathology was obtained after fixation in 4% paraformaldehyde (PFA); blood smears and bone marrow cytospins were performed on the day of sacrifice. Sections were stained with hematoxylin and eosin stain or Wright Giemsa stain as appropriate. CD34+ staining was performed using CD34, Rat Monoclonal Antibody Performed on a Leica Bond™ RX using the Bond™ Polymer Refine Detection Kit (Cat. No. DS9800). The sections stained with CD34 (Abcam, Cat. Ab8158 diluted 1:50) were pre-treated using heat mediated antigen retrieval with Citrate, pH6 (Leica Biosystem Epitope Retrieval 1, Cat. No. AR9961) for 20 min. DAB was used as the chromogen, counterstained with hematoxylin and mounted.

[5] = test system: IDH2^R140Q JAK2^V617F mutant LSK; test: RNA-sequencing of donor-derived CD45.2 LSK from treated mice (GSEA); type: in vivo
Procedure: Before cell of origin transplants, sorting was performed on bone marrow with enrichment for cKit/CD117-positive cells using CD117 MicroBeads (Miltenyi). For expression analysis, sorting was performed on bone marrow that had been depleted of mature cells using Progenitor Cell Enrichment Kit ([…] Technologies).
CD45.2+ LSK cells were sorted into ice cold FACS Buffer, pelleted, and stored in Triazol until extraction of RNA using phenol-chlorophorm. The library was produced using SMARTer amplification (Clontech) amplify and create the library. Illumina sequencing was performed using Paired-End 50 bp at 40×10^6 reads per sample.

[6] = test system: JAK2/IDH2-mutant MPN cell metabolism; test: LC/MS metabolite analysis of bone marrow aspirates from treated mice; type: in vivo, mouse
Procedure: External mass calibration was performed using the standard calibration mixture every 7 days. […] Buffer A was 20 mM ammonium carbonate, 0.1% ammonium hydroxide; buffer B was acetonitrile. […] The sheath gas flow was set to 40 units, the auxiliary gas flow was set to 15 units, and the sweep gas flow was set to 1 unit. […] Relative quantitation of polar metabolites was performed with XCalibur QuanBrowser 2.2 (Thermo Fisher Scientific) using a 5 ppm mass tolerance and referencing an in-house library of chemical standards.

[7] = test system: samples from patients with MPN and Post-MPN AML with IDH2^R140Q and JAK2^V617F mutations; test: Human colony forming (methylcellulose) assay; type: cell-based; details: Methocult H4435, 400 nM
Procedure: Approval was obtained from the Institutional Review Board at Memorial Sloan-Kettering Cancer Center. Tissues were collected in partnership with the Human Oncology Tissue Bank, and all patients provided informed consent. Fresh peripheral blood was collected into heparinized collection tubes, and separation of peripheral blood mononuclear cells (PBMC) was performed using hetastarch and a Ficoll gradient with subsequent red blood cell lysis.
(§3) Frozen or fresh PBMCs were plated in Methocult H4435 (Stem Cell) with penicillin and streptomycin in triplicate wells. MPN patient cells were plated after enrichment using CD34 Microbeads (Miltenyi) at 1,000 cells per well; AML patient cells were plated without enrichment at 100,000 cells per well.

[8] = test system: JAK2/IDH2-mutant MPN/AML cells; test: FACS of cell surface markers on cultured human colony cells; type: cell-based; details: cultured patient cells, 400 nM
Procedure: as §3
To observe monocytic and granulocytic differentiation, antibodies against CD117/cKit, CD34, CD38, CD15 (HI98, eBioscience), CD14 (HCD14, BioLegend), and CD16 (3G8, BioLegend) were used.

[9] = CD45.2 LSK RNA-seq, GSEA, p<1e-4
[10] = stem cells of treated mice versus wild type, Hallmark GSEA

| Structure (SMILES) | Serum 2HG levels (mean) [1] [ng/mL] | Splenomegaly: spleen weight (mean) (JAK2/IDH2-mutant MPN [2]) [mg] | Erythrocyte progenitors: Pre-erythrocytes (JAK2/IDH2-mutant MPN [3]) | Pre-MegE populations (JAK2/IDH2-mutant MPN [3]) | Erythrocyte progenitors: CFU-E (JAK2/IDH2-mutant MPN [3]) | Erythrocyte progenitors: Pre-CFU-E (JAK2/IDH2-mutant MPN [3]) [%] | Total LSK number in the bone marrow (JAK2/IDH2-mutant MPN [3]) | Mutant donor chimerism, mean change pre- and post-treatment [4] | NES, downregulated genes of the combination-therapy signature also altered by monotherapy [5, 9] | further results |
| --- | --- | --- | --- | --- | --- | --- | --- | --- | --- | --- |
| CC(C)(O)CNc1nc(Nc2ccnc(C(F)(F)F)c2)nc(-c2cccc(C(F)(F)F)n2)n1 [AG221, 2-methyl-1-[(4-[6-(trifluoromethyl)pyridin-2-yl]-6-{[2-(trifluoromethyl)pyridin-4-yl]amino}-1,3,5-triazin-2-yl)amino]propan-2-ol] | 744.4 | 188.3 | 0.03906 | 0.03906 | 0.8251 | 0.1913 | 36.43×10^3 | −6.291% | −2.3 | Proportion of CD45.2 myeloid progenitor populations (JAK2/IDH2-mutant MPN [3]; donor-derived cells, number of CD45.1 myeloid progenitors not affected): reduced; Aberrant CD34 expression in megakaryocytes (JAK2/IDH2 mutant MPN; CD34 immunohistochemical stain of bone marrow): resulted the aberrant CD34 expression seen in megakaryocytes; Expansion of spleen blasts (JAK2/IDH2 mutant MPN; histology, compared with untreated JAK2/IDH2 mutant MPN): eliminated the expansion of spleen blasts; NES, upregulated genes of the combination-therapy signature also reversed by monotherapy [5, 9]: +1.9; IL6/JAK/STAT3 gene expression signature [5, 10]: enrichment for expression of genes in this pathway were seen; Interferon gamma signatures [5, 10]: significantly enriched; Oncogenic signatures (cMYC, mTOR, KRAS) [5, 10]: highly significant enrichment; 2HG levels in bone marrow aspirates ([6]; after 10 days of treatment): Reduction; Levels of Kreb's cycle intermediates (α-ketoglutarate, citrate, succinate, fumarate, malate) ([6]; bone marrow aspirates, 10 days of treatment, p<0.0252): reduced; BFU-E colonies [7]: presence of BFU-E colonies; Colony number / colony output ([7]; DMSO controls): increase in colony number; Differentiation markers CD235a / CD14 [8]: upregulation; Surface expression of immature marker cKit/CD117 / proportion of c-Kit positive colonies [8]: reduced |
| N#CC[C@H](C1CCCC1)n1cc(-c2ncnc3[nH]ccc23)cn1 [ruxolitinib, reference compound] | 1233 | 101.3 | 0.08063 | 0.08063 | 0.5553 | 0.1103 | 20.73×10^3 | +3.256% | −2.2 |  |
